System: NHACs
Assay: calcium flux assay
Assay type: cell-based, human
Details: Homo sapiens; for Emax: read-out: (A) % Efficacy
Experimental: NHACs were plated in 1536 Greiner plate at 2000 cells/well in 4 ul volume. 24 hours later, 4 ul of Calcium 5 dye solution (Hank's Balanced Salt/HEPES buffer containing 5 mM of Probenecid) was then added and incubated for 1 hour at room temperature. Fluorescence readings at excitation wavelength of 470-495 nm and emission wavelength of 515-575 nm were done using FLIPR high-throughput screening system (Molecular Devices, Sunnyvale, CA). The test compound was then added to each well at the indicated dose. Signal was measured prior compound dispense and after using a first interval of 1 second for 60 reads and second interval of 3 second for 20 reads. Data was analyzed using Molecular Devices ScreenWorks® Software.

Row | EC50 [µM] | SMILES | Emax [%]
1 | > 50 | O=C(Nc1cnc(Cl)c(Cl)c1)[C@H]1[C@@H](c2ccncc2)[C@H]2O[C@@H]1C[C@@H]2O (single isomer, unassigned) [Example 10a] | 55
2 | > 50 | Cc1cc([C@@H]2[C@@H]3O[C@@H]([C@H]4C[C@H]43)[C@@H]2C(=O)Nc2ccc(Cl)c(Cl)c2)ccn1 (single isomer, unassigned) [Example 23b] | 0
3 | > 50 | O=C(Nc1cnc(Cl)c(Cl)c1)[C@@H]1[C@@H]2O[C@@H]([C@H]3C[C@H]32)[C@@H]1c1ccncc1 (single isomer, unassigned) [Example 43b] | 3
4 | 0.84 | COc1cc([C@H]2[C@H]3O[C@H](C[C@@H]3O)[C@H]2C(=O)Nc2ccc(Cl)c(Cl)c2)ccn1 (single isomer, unassigned) [Example 49a] | 53
5 | > 50 | COc1cc([C@@H]2[C@@H]3O[C@@H](C[C@H]3O)[C@@H]2C(=O)Nc2ccc(Cl)c(Cl)c2)ccn1 (single isomer, unassigned) [Example 49b] | 31
6 | > 50 | O=C(Nc1ccc(Cl)c(Cl)c1)[C@@H]1[C@H](c2ccnc(F)c2)[C@@H]2O[C@H]1C[C@H]2O (single isomer, unassigned) [Example 52b] | 1
7 | > 50 | Cc1cc([C@@H]2[C@@H]3O[C@@H](C[C@H]3O)[C@@H]2C(=O)Nc2ccc(Cl)c(Cl)c2)ccn1 (single isomer, unassigned) [Example 53b] | 119
8 | 22 | Cc1cc([C@@H]2[C@@H]3O[C@@H]([C@H]4C[C@H]43)[C@H]2C(=O)Nc2cccc(C(F)(F)F)c2)ccn1 (single isomer, unassigned) [Example 121b] | 92
9 | 25 | O=C(Nc1ccc(Cl)c(Cl)c1)[C@H]1[C@@H]2O[C@@H]([C@H]3C[C@H]32)[C@@H]1c1ccnc(F)c1F (single isomer, unassigned) [Example 122a] | 160

The next lines start with the compound.

Row | SMILES | EC50 [µM] | Emax [%]
10 | COc1ccc(NC(=O)[C@@H]2[C@@H]3O[C@@H]([C@H]4C[C@H]43)[C@@H]2c2ccc(C)nc2)cn1 (racemic) [Example 2, rac-(1S,2S,4R,5R,6S,7S)—N-(6-methoxypyridin-3-yl)-7-(6-methylpyridin-3-yl)-8-oxatricyclo[3.2.1.0^2,4]octane-6-carboxamide] | 0.3 | 45
11 | O=C(Nc1cnc(Cl)c(Cl)c1)[C@@H]1[C@@H]2O[C@@H]([C@H]3C[C@H]32)[C@@H]1c1ccncc1 (racemic) [Example 43, rac-(1S,2S,4R,5R,6S,7S)—N-(5,6-dichloropyridin-3-yl)-7-(pyridin-4-yl)-8-oxatricyclo[3.2.1.0^2,4]octane-6-carboxamide] | > 50 | 168
12 | O=C(Nc1ccc(Cl)c(Cl)c1)[C@H]1[C@@H](c2ccncc2)[C@H]2O[C@@H]1C[C@@H]2O (racemic) [Example 47, rac-(1R,2S,3S,4R,5S)—N-(3,4-dichlorophenyl)-5-hydroxy-3-(pyridin-4-yl)-7-oxabicyclo[2.2.1]heptane-2-carboxamide] | 7.8 | 38
13 | COc1cc([C@H]2[C@H]3O[C@H](C[C@@H]3O)[C@H]2C(=O)Nc2ccc(Cl)c(Cl)c2)ccn1 (racemic) [Example 49, rac-(1R,2S,3S,4R,5S)—N-(3,4-dichlorophenyl)-5-hydroxy-3-(2-methoxypyridin-4-yl)-7-oxabicyclo[2.2.1]heptane-2-carboxamide] | 11 | 77
14 | O=C(Nc1ccc(Cl)c(Cl)c1)[C@H]1[C@@H](c2ccnc(F)c2)[C@H]2O[C@@H]1C[C@@H]2O (racemic) [Example 52, rac-(1R,2S,3S,4R,5S)—N-(3,4-dichlorophenyl)-3-(2-fluoropyridin-4-yl)-5-hydroxy-7-oxabicyclo[2.2.1]heptane-2-carboxamide] | > 50 | 4
15 | Cc1cc([C@H]2[C@H]3O[C@H](C[C@@H]3O)[C@H]2C(=O)Nc2ccc(Cl)c(Cl)c2)ccn1 (racemic) [Example 53, rac-(1R,2S,3S,4R,5S)—N-(3,4-dichlorophenyl)-5-hydroxy-3-(2-methylpyridin-4-yl)-7-oxabicyclo[2.2.1]heptane-2-carboxamide] | > 50 | 43
16 | Cc1cc([C@H]2[C@H]3O[C@H](C[C@@H]3O)[C@@H]2C(=O)Nc2ccc(Cl)c(Cl)c2)ccn1 (racemic) [Example 77, rac-(1R,2R,3S,4R,5S)—N-(3,4-dichlorophenyl)-5-hydroxy-3-(2-methylpyridin-4-yl)-7-oxabicyclo[2.2.1]heptane-2-carboxamide] | 26 | 49
17 | O=C(Nc1cnc(Cl)c(Cl)c1)[C@@H]1[C@@H](c2ccnc(F)c2)[C@H]2O[C@@H]1C[C@@H]2O (racemic) [Example 90, rac-(1R,2R,3S,4R,5S)—N-(5,6-dichloropyridin-3-yl)-3-(2-fluoropyridin-4-yl)-5-hydroxy-7-oxabicyclo[2.2.1]heptane-2-carboxamide] | > 50 | 45
18 | Cc1cc([C@H]2[C@H]3O[C@H]([C@@H]4C[C@@H]43)[C@@H]2C(=O)Nc2cccc(C(F)(F)F)c2)ccn1 (racemic) [Example 121, rac-(1S,2S,4R,5R,6R,7S)-7-(2-methylpyridin-4-yl)-N-(3-(trifluoromethyl)phenyl)-8-oxatricyclo[3.2.1.0^2,4]octane-6-carboxamide] | 26 | 353
19 | O=C(Nc1ccc(Cl)c(Cl)c1)[C@H]1[C@@H]2O[C@@H]([C@H]3C[C@H]32)[C@@H]1c1ccnc(F)c1F (racemic) [Example 122, rac-(1S,2S,4R,5R,6R,7S)—N-(3,4-dichlorophenyl)-7-(2,3-difluoropyridin-4-yl)-8-oxatricyclo[3.2.1.0^2,4]octane-6-carboxamide] | 5 | 32
20 | O=C(Nc1ccc(Cl)c(Cl)c1)[C@H]1[C@@H]2O[C@@H]([C@H]3C[C@H]32)[C@@H]1c1cncnc1 (racemic) [Example 126, rac-(1S,2S,4R,5R,6R,7S)—N-(3,4-dichlorophenyl)-7-(pyrimidin-5-yl)-8-oxatricyclo[3.2.1.0^2,4]octane-6-carboxamide] | 10 | 212
21 | COc1cc([C@H]2[C@H]3O[C@H](C[C@@H]3O)[C@@H]2C(=O)Nc2ccc(Cl)c(Cl)c2)ccn1 (racemic) [Example 139, rac-(1R,2R,3S,4R,5S)—N-(3,4-dichlorophenyl)-5-hydroxy-3-(2-methoxypyridin-4-yl)-7-oxabicyclo[2.2.1]heptane-2-carboxamide] | 21 | 223
22 | O=C(Nc1ccc(Cl)c(Cl)c1)[C@@H]1[C@@H](c2ccnc(F)c2)[C@H]2O[C@@H]1C[C@@H]2O (racemic) [Example 142, rac-(1R,2R,3S,4R,5S)—N-(3,4-dichlorophenyl)-3-(2-fluoropyridin-4-yl)-5-hydroxy-7-oxabicyclo[2.2.1]heptane-2-carboxamide] | 28 | 142
23 | O=C(Nc1ccc(Cl)c(Cl)c1)[C@@H]1[C@@H](c2ccnc(C(F)(F)F)c2)[C@H]2O[C@@H]1C[C@@H]2O (racemic) [Example 145, rac-(1R,2R,3S,4R,5S)—N-(3,4-dichlorophenyl)-5-hydroxy-3-(2-(trifluoromethyl)pyridin-4-yl)-7-oxabicyclo[2.2.1]heptane-2-carboxamide] | 17 | 246
24 | Cc1cc([C@@H]2[C@@H]3O[C@@H](C[C@H]3O)[C@@H]2C(=O)Nc2cnc(Cl)c(Cl)c2)ccn1 (single isomer, unassigned) [Example 7] | > 50 | 0
25 | O=C(Nc1ccc(Cl)c(Cl)c1)[C@H]1[C@H]2O[C@H]([C@@H]3C[C@@H]32)[C@H]1c1cncnc1 (single isomer, unassigned) [Example 28] | 23 | 167
26 | O=C(Nc1ccc(Cl)c(Cl)c1)[C@@H]1[C@@H]2O[C@@H]([C@H]3C[C@H]32)[C@@H]1c1ccnc(F)c1F (single isomer, unassigned) [Example 29] | > 50 | 6
27 | O=C(Nc1ccc(Cl)c(Cl)c1)[C@H]1[C@H]2O[C@H]([C@@H]3C[C@@H]32)[C@H]1c1ccnc(F)c1F (single isomer, unassigned) [Example 30] | 10 | 133
28 | Cc1cc([C@H]2[C@H]3O[C@H]([C@@H]4C[C@@H]43)[C@H]2C(=O)Nc2cnc(Cl)c(Cl)c2)ccn1 (single isomer, unassigned) [Example 45] | 14 | 32
29 | Cc1cc([C@@H]2[C@@H]3O[C@@H]([C@H]4C[C@H]43)[C@@H]2C(=O)Nc2cnc(Cl)c(Cl)c2)ccn1 (single isomer, unassigned) [Example 46] | > 50 | 0
30 | O=C(Nc1cnc(Cl)c(Cl)c1)[C@H]1[C@@H]2O[C@@H]([C@H]3C[C@H]32)[C@@H]1c1ccnc(F)c1F (single isomer, unassigned) [Example 72] | 7.7 | 208
31 | O=C(Nc1cnc(Cl)c(Cl)c1)[C@@H]1[C@H]2O[C@H]([C@@H]3C[C@@H]32)[C@H]1c1ccnc(F)c1F (single isomer, unassigned) [Example 73] | 16 | 127
32 | Cc1cc([C@H]2[C@H]3O[C@H](C[C@H]3F)[C@@H]2C(=O)Nc2ccc(Cl)c(Cl)c2)ccn1 (single isomer, unassigned) [Example 92] | > 50 | 57
33 | Cc1cc([C@@H]2[C@@H](C(=O)Nc3ccc(Cl)c(Cl)c3)[C@@H]3O[C@H]2C[C@@H]3F)ccn1 (single isomer, unassigned) [Example 93] | > 50 | 7
34 | Cc1cc([C@H]2[C@H](C(=O)Nc3ccc(Cl)c(Cl)c3)[C@H]3O[C@@H]2C[C@H]3F)ccn1 (single isomer, unassigned) [Example 95] | 11 | 113
